The assay addresses GST tagged IRAK4 (Homo sapiens (Human), UniProt Q9NWZ3). As to the kind of experiment: Determination of IRAK4 kinase activity (IMAP fluorescence polarization). The format is biochemical. The following applies: 0.5 nM GST tagged IRAK4, 100 nM fluorescent peptide substrate RP7030, 100 μM ATP, 30 minutes at 25° C. The method, then: The kinase activity of IRAK4 is determined by its ability to catalyze the phosphorylation of a fluorescent polypeptide substrate. The extent of phosphorylation is measured using IMAP technology (Molecular Devices) where the phosphorylated fluorescent substrate binds to the large M(III)-based nanoparticles which reduces the rotational speed of the substrate and thus increases its fluorescent polarization (FP).
Procedure: A 20 μl reaction mixture contains 10 mM TriHCl, pH 7.2, 0.5 nM GST tagged IRAK4 (SignalChem), 100 nM fluorescent peptide substrate (RP7030, Molecular Devices), 100 μM ATP, 1 mM DTT, 1 mM MgCl2, and 0.01% Tween 20. The reaction is initiated by the addition of ATP. After incubation for 30 minutes at 25° C., 60 μl of Progressive IMAP Reagent (Molecular Devices) is added to stop the reaction. Change in RP7030's FP is determined by a FP reader (Analyst HT, LJL BioSystems).
(Polarisation of emitted light reports the rotation of a fluorescent probe.)

pIC50: −log10 of the molar value.

GST tagged IRAK4, sequence (Q9NWZ3 whole entry): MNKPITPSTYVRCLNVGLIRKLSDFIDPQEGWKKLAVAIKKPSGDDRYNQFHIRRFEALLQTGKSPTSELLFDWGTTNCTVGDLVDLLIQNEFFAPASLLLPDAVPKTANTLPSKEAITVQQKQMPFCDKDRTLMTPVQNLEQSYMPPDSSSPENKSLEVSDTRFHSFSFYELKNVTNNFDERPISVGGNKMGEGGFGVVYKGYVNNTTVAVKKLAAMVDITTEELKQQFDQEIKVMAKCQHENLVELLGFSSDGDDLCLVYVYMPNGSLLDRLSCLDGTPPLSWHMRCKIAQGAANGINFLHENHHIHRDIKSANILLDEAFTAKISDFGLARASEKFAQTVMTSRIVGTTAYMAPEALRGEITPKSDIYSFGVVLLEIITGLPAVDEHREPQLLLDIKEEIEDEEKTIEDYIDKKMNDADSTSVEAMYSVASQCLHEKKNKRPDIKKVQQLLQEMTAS

A word on the pIC50: it is the negative decadic logarithm of the IC50, by convention in mol/L. A high value points to a small IC50. The molecule `Cn1cc(NC(=O)c2cccc(-c3ccnc(NCC4CC4)c3)n2)c(C(N)=O)n1` [Example 1, N-(3-carbamoyl-1-methyl-1H-pyrazol-4-yl)-2′-((cyclopropylmethyl)amino)-[2,4′-bipyridine]-6-carboxamide] gave a pIC50 of 7.13.

On to `Cn1cc(NC(=O)c2cccc(-n3cccc3)n2)c(C(N)=O)n1` [Example 2, N-(3-carbamoyl-1-methyl-1H-pyrazol-4-yl)-6-(1H-pyrrol-1-yl)picolinamide], for which the negative-log IC50 (pIC50) is 6.19.

As for `Cn1cc(NC(=O)c2cccc(-c3ccnc(NC(=O)OC(C)(C)C)c3)n2)c(C(N)=O)n1` [Example 4, tert-butyl(6-((3-carbamoyl-1-methyl-1H-pyrazol-4-yl)carbamoyl)-[2,4′-bipyridin]-2′-yl)carbamate], the pIC50 is 6.11.

`Cn1cc(NC(=O)c2ccnc(-c3ccnc(NCC4CC4)c3)c2)c(C(N)=O)n1` [Example 5, N-(3-carbamoyl-1-methyl-1H-pyrazol-4-yl)-2′-(cyclopropylmethylamino)-2,4′-bipyridine-4-carboxamide] showed a pIC50 of 5.84.

`Cn1cc(NC(=O)c2cccc(-c3ccnc(N)c3)n2)c(C(N)=O)n1` [Example 6, 2′-amino-N-(3-carbamoyl-1-methyl-1H-pyrazol-4-yl)-[2,4′-bipyridine]-6-carboxamide] gave a pIC50 of 7.00.

Consider `Cn1cc(NC(=O)c2cncc(-c3ccnc(NCC4CC4)c3)c2)c(C(N)=O)n1` [Example 7, N-(3-carbamoyl-1-methyl-1H-pyrazol-4-yl)-2′-(cyclopropylmethylamino)-3,4′-bipyridine-5-carboxamide], for which the negative-log IC50 (pIC50) was 5.96.

`Cn1ncc(NC(=O)c2cccc(-c3ccnc(NCC4CC4)c3)n2)c1C(N)=O` [Example 8, N-(5-carbamoyl-1-methyl-1H-pyrazol-4-yl)-2′-(cyclopropylmethylamino)-2,4′-bipyridine-6-carboxamide] had a pIC50 of 5.56.

The molecule `Cn1cc(NC(=O)c2cccc(N3CCOCC3)n2)c(C(N)=O)n1` [Example 9, N-(3-carbamoyl-1-methyl-1H-pyrazol-4-yl)-6-morpholinopicolinamide] showed a pIC50 of 5.49.

`Cn1cc(NC(=O)c2cccc(N3CCNCC3)n2)c(C(N)=O)n1` [Example 10, N-(3-carbamoyl-1-methyl-1H-pyrazol-4-yl)-6-(piperazin-1-yl)picolinamide] gave a pIC50 of 5.46.

The molecule `Cn1cc(NC(=O)c2cccc(-c3ccncc3)n2)c(C(N)=O)n1` [Example 11, N-(3-carbamoyl-1-methyl-1H-pyrazol-4-yl)-2,4′-bipyridine-6-carboxamide] showed a negative logarithm of the IC50 (pIC50) of 5.72.

`Cn1cc(NC(=O)c2cccc(-c3cccnc3)n2)c(C(N)=O)n1` [Example 12, N-(3-carbamoyl-1-methyl-1H-pyrazol-4-yl)-[2,3′-bipyridine]-6-carboxamide] had a pIC50 of 6.67.

Take `COc1cccc(-c2cccc(C(=O)Nc3cn(C)nc3C(N)=O)n2)c1` [Example 13, N-(3-carbamoyl-1-methyl-1H-pyrazol-4-yl)-6-(3-methoxyphenyl)picolinamide]: the pIC50 is 6.20.

The molecule `COCCNc1cc(-c2cccc(C(=O)Nc3cn(C)nc3C(N)=O)n2)ccn1` [Example 15, N-(3-carbamoyl-1-methyl-1H-pyrazol-4-yl)-2′-((2-methoxyethyl)amino)-[2,4′-bipyridine]-6-carboxamide] showed a negative-log IC50 (pIC50) of 6.73.

Take `Cn1cc(NC(=O)c2cccc(-c3ccnc(NCC(F)F)c3)n2)c(C(N)=O)n1` [Example 16, N-(3-carbamoyl-1-methyl-1H-pyrazol-4-yl)-2′-((2,2-difluoroethyl)amino)-[2,4′-bipyridine]-6-carboxamide]: the pIC50 is 6.71.

For the molecule `Cn1cc(NC(=O)c2cccc(-c3ccnc(NCC4CCOCC4)c3)n2)c(C(N)=O)n1` [Example 17, N-(3-carbamoyl-1-methyl-1H-pyrazol-4-yl)-2′-(((tetrahydro-2H-pyran-4-yl)methyl)amino)-[2,4′-bipyridine]-6-carboxamide], the pIC50 is 6.32.

As to `Cn1cc(NC(=O)c2cccc(-c3ccnc(NCC(F)(F)F)c3)n2)c(C(N)=O)n1` [Example 18, N-(3-carbamoyl-1-methyl-1H-pyrazol-4-yl)-2′-((2,2,2-trifluoroethyl)amino)-[2,4′-bipyridine]-6-carboxamide], the pIC50 is 6.90.

`Cn1cc(NC(=O)c2ccnc(-c3ccnc(NCC4CC4)c3)n2)c(C(N)=O)n1` [Example 19, N-(3-carbamoyl-1-methyl-1H-pyrazol-4-yl)-2-(2-((cyclopropylmethyl)amino)pyridin-4-yl)pyrimidine-4-carboxamide] showed a pIC50 of 6.55.

In turn, `COc1ncccc1-c1cccc(C(=O)Nc2cn(C)nc2C(N)=O)n1` [Example 20, N-(3-carbamoyl-1-methyl-1H-pyrazol-4-yl)-2′-methoxy-[2,3′-bipyridine]-6-carboxamide] gave a pIC50 of 5.67.

Molecule `Cn1cc(NC(=O)c2cccc(-c3cccc(OC(F)(F)F)c3)n2)c(C(N)=O)n1` [Example 21, N-(3-carbamoyl-1-methyl-1H-pyrazol-4-yl)-6-(3-(trifluoromethoxy)phenyl)picolinamide] had a negative logarithm of the IC50 (pIC50) of 5.65.

As for `Cn1cc(NC(=O)c2cccc(-c3ccsc3)n2)c(C(N)=O)n1` [Example 22, N-(3-carbamoyl-1-methyl-1H-pyrazol-4-yl)-6-(thiophen-3-yl)picolinamide], the negative logarithm of the IC50 (pIC50) was 6.44.

On to `Cn1cc(NC(=O)c2cccc(-c3ccc(N4CCOCC4)nc3)n2)c(C(N)=O)n1` [Example 23, N-(3-carbamoyl-1-methyl-1H-pyrazol-4-yl)-6′-morpholino-[2,3′-bipyridine]-6-carboxamide], for which the negative logarithm of the IC50 (pIC50) is 5.96.

In turn, `CNC(=O)c1cccc(-c2cccc(C(=O)Nc3cn(C)nc3C(N)=O)n2)c1` [Example 24, N-(3-carbamoyl-1-methyl-1H-pyrazol-4-yl)-6-(3-(methylcarbamoyl)phenyl)picolinamide] showed a pIC50 of 6.70.

The molecule `Cn1cc(-c2cccc(C(=O)Nc3cn(C)nc3C(N)=O)n2)cn1` [Example 25, N-(3-carbamoyl-1-methyl-1H-pyrazol-4-yl)-6-(1-methyl-1H-pyrazol-4-yl)picolinamide] had a negative-log IC50 (pIC50) of 7.49.

`Cn1cc(NC(=O)c2cccc(C3=CCS(=O)(=O)CC3)n2)c(C(N)=O)n1` [Example 26, N-(3-carbamoyl-1-methyl-1H-pyrazol-4-yl)-6-(1,1-dioxido-3,6-dihydro-2H-thiopyran-4-yl)picolinamide] had a pIC50 of 5.89.

As to `Cn1cc(NC(=O)c2cccc(C3=CCCOC3)n2)c(C(N)=O)n1` [Example 27, N-(3-carbamoyl-1-methyl-1H-pyrazol-4-yl)-6-(5,6-dihydro-2H-pyran-3-yl)picolinamide], the pIC50 was 6.87.

Molecule `Cn1cc(NC(=O)c2cccc(-c3ccc(C4CC4)nc3)n2)c(C(N)=O)n1` [Example 28, N-(3-carbamoyl-1-methyl-1H-pyrazol-4-yl)-6′-cyclopropyl-[2,3′-bipyridine]-6-carboxamide] gave a pIC50 of 7.03.

As for `Cn1cc(NC(=O)c2cccc(-c3cncc(Cl)c3)n2)c(C(N)=O)n1` [Example 29, N-(3-carbamoyl-1-methyl-1H-pyrazol-4-yl)-5′-chloro-[2,3′-bipyridine]-6-carboxamide], the pIC50 was 7.04.

Turning to `Cn1cc(NC(=O)c2cccc(C3=CCOCC3)n2)c(C(N)=O)n1` [Example 30, N-(3-carbamoyl-1-methyl-1H-pyrazol-4-yl)-6-(3,6-dihydro-2H-pyran-4-yl)picolinamide], the pIC50 was 6.37.

With `Cn1cc(NC(=O)c2cccc(-c3cnccc3Cl)n2)c(C(N)=O)n1` [Example 31, N-(3-carbamoyl-1-methyl-1H-pyrazol-4-yl)-4′-chloro-[2,3′-bipyridine]-6-carboxamide], the negative logarithm of the IC50 (pIC50) is 6.21.

`CN1CCC(c2cccc(C(=O)Nc3cn(C)nc3C(N)=O)n2)=CC1=O` [Example 32, N-(3-carbamoyl-1-methyl-1H-pyrazol-4-yl)-1′-methyl-6′-oxo-1′,2′,3′,6′-tetrahydro-[2,4′-bipyridine]-6-carboxamide] gave a negative-log IC50 (pIC50) of 7.09.

`CN1CCC=C(c2cccc(C(=O)Nc3cn(C)nc3C(N)=O)n2)C1` [Example 33, N-(3-carbamoyl-1-methyl-1H-pyrazol-4-yl)-1′-methyl-1′,2′,5′,6′-tetrahydro-[2,3′-bipyridine]-6-carboxamide] showed a negative logarithm of the IC50 (pIC50) of 6.13.

Take `CN1CCC(CNC(=O)c2nn(C)cc2NC(=O)c2cccc(-c3ccnc(NCC4CC4)c3)n2)C1` (stereo not shown) [Example 34, 2′-((cyclopropylmethyl)amino)-N-(1-methyl-3-(((1-methylpyrrolidin-3-yl)methyl)carbamoyl)-1H-pyrazol-4-yl)-[2,4′-bipyridine]-6-carboxamide]: the negative logarithm of the IC50 (pIC50) is 6.14.

For `Cn1cc(NC(=O)c2cccc(-c3ccnc(NCC4CC4)c3)n2)c(C(=O)NCCN2CCCC2)n1` [Example 35, 2′-((cyclopropylmethyl)amino)-N-(1-methyl-3-((2-(pyrrolidin-1-yl)ethyl)carbamoyl)-1H-pyrazol-4-yl)-[2,4′-bipyridine]-6-carboxamide], the pIC50 is 5.97.

Take `Cn1cc(NC(=O)c2cccc(-c3ccnc(NCC4CC4)c3)n2)c(C(=O)NCc2ncc[nH]2)n1` [Example 36, N-(3-(((1H-imidazol-2-yl)methyl)carbamoyl)-1-methyl-1H-pyrazol-4-yl)-2′-((cyclopropylmethyl)amino)-[2,4′-bipyridine]-6-carboxamide]: the pIC50 is 5.81.

The values above are taken from US9586948B2, “Inhibitors of IRAK4 activity” (MERCK SHARP & DOHME CORP., priority 2012, dated 2017).
